Earlier results as cited in publication PMC7029871, “Development and validation of a sensitive LC-MS/MS method for the quantitation of IMB-YH-4py5-2H, an antituberculosis candidate, and its application to the pharmacokinetic study” (PLoS ONE, 2020).
Where two headings read alike, the source gives them in different places.

Test system: Mycobacterium tuberculosis strains
Conditions: cited from earlier work

Row | SMILES | MICs (sensitive and resistant M. tuberculosis strains, method and reference not given) [µg/mL] | MICs (drug-sensitive and drug-resistant M. tuberculosis strains) [µg/mL]
1 | CN(C)C(=O)/C=C/C(=O)c1ccc(-c2ccncc2)cc1.Cl [IMB-YH-4py5-2H, (E)-N,N-dimethyl-4-oxo-4-(4-(pyridin-4-yl)phenyl)but-2-enamide hydrochloride] | 0.25 to 0.5 | 
2 | COC(=O)/C=C/C(=O)c1ccc(OC)cc1 [YH-8, (E)-Methyl-4-aryl-4-oxabut-2-enoate, reference compound] |  | 0.25 to 1
